Laboratory results from BigSolDB 2.1.

Sc1nc2ccccc2[nH]1
solubility (mole fraction)
Details	283.15 K	288.15 K	293.15 K	298.15 K	303.15 K	308.15 K	313.15 K	318.15 K	323.15 K
in 2-butoxyethanol	0.0459	0.0463	0.0469	0.0475	0.0484	0.0491	0.0498	0.0507	0.0515
in 2-ethoxyethanol	0.0577	0.0583	0.059	0.0599	0.0607	0.0615	0.0623	0.0634	0.0646
in 2-methoxyethanol	0.0682	0.0691	0.0703	0.0717	0.0729	0.0742	0.0758	0.0775	0.0793
in 2-propoxyethanol	0.0497	0.0502	0.0506	0.0511	0.0519	0.0526	0.0535	0.0545	0.0555
in MIBK	0.00859	0.00884	0.00913	0.00945	0.00983	0.0102	0.0106	0.011	0.0114
in ethyl formate	0.00169	0.0018	0.00197	0.00211	0.00228	0.0025	0.00273	0.003	0.00323
in ethylene glycol	0.0137	0.0147	0.0162	0.0175	0.0193	0.0206	0.022	0.0238	0.0254
in isobutanol	0.00371	0.0046	0.00556	0.00638	0.00724	0.00813	0.0092	0.0103	0.0114
in isopropyl acetate	0.00245	0.00255	0.00272	0.00283	0.00303	0.00318	0.00337	0.00364	0.00397
in n-butyl acetate	0.00529	0.00538	0.00551	0.00564	0.00577	0.00597	0.00614	0.00637	0.00662
in sec-butanol	0.00591	0.00729	0.00851	0.00972	0.011	0.0126	0.014	0.0159	0.0177
